T1: hydroquinone dioxygenase (HQDO) from Sphingomonas sp. strain TTNP3 (Sphingomonas sp. TTNP3, UniProt F8TW82+F8TW83)
T1 construct: gene hqdB; native enzyme purified from nonylphenol-induced cells; untagged; alpha2beta2 heterotetramer, 120 kDa by SEC, bands 38 kDa and 19 kDa; b63 order implies HqdA small and HqdB large, abstract order of identities contradicts
T1 sequence (F8TW83 1-341): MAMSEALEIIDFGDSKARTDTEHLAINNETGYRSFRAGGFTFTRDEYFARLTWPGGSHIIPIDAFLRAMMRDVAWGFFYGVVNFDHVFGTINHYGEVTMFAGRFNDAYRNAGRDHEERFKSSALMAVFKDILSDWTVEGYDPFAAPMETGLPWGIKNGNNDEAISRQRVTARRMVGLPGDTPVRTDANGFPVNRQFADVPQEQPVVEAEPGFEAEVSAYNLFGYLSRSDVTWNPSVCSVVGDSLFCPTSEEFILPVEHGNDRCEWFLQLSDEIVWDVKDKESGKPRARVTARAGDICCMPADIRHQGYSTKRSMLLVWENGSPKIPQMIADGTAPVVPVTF
T1 sequence (F8TW82 1-170): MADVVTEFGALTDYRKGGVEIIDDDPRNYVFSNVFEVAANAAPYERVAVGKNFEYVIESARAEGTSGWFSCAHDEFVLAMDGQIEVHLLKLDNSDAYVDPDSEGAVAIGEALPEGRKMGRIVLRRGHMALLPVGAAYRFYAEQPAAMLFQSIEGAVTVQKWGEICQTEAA


What was measured:
[1] = target: T1, hydroquinone dioxygenase (HQDO) from Sphingomonas sp. strain TTNP3; assay: residual activity on HQ with inhibitor; type: biochemical
Description: residual activity on HQ with inhibitor on hydroquinone dioxygenase (HQDO) from Sphingomonas sp. strain TTNP3

purified protein = substrate: Oc1ccc(O)cc1; assay: purified protein; type: biochemical, Sphingomonas sp. TTNP3; details: air-saturated 50 mM Tris, pH 7.0, 25°C, kcat per heterotetramer, suicide deactivation by substrate

Molecule | activity at 200 µM [1] [%] | also measured
N#CCc1ccc(O)cc1 [4-Hydroxybenzylcyanide] | – | Activity (%) ([1]; 2 µM, substrate HQ, compound named 4-hydroxybenzonitrile in text, 4-hydroxybenzylcyanide in table): 16 ± 0.2%
Oc1ccc(S)cc1 [4-Mercaptophenol] | – | activity at 20 µM [1]: 5%
O=[N+]([O-])c1ccc(O)cc1 [4-Nitrophenol] | 27 ± 1.2 | –
O=C1C=CC(=O)C=C1 [Benzoquinone] | – | activity at 20 µM [1]: 16 ± 0.3%
O=C(O)/C=C/c1ccc(O)c(O)c1 [Caffeic acid] | – | activity at 80 µM [1]: 98 ± 2.5%
Oc1ccccc1O [Catechol] | 93 ± 1.3 | –
Oc1ccccc1 [Phenol] | 98 ± 1.7 | –
COc1cc(C=O)ccc1O [Vanillin] | – | activity at 100 µM [1]: 18 ± 7.4%
COc1cc(CO)ccc1O [Vanillyl alcohol] | 62 ± 1 | –
hydroquinone dioxygenase (HQDO) from Sphingomonas sp. strain TTNP3 (Sphingomonas sp. TTNP3) (protein, native enzyme purified from nonylphenol-induced cells; untagged; alpha2beta2 heterotetramer, 120 kDa by SEC, bands 38 kDa and 19 kDa; b63 order implies HqdA small and HqdB large, abstract order of identities contradicts) chain 1: MAMSEALEIIDFGDSKARTDTEHLAINNETGYRSFRAGGFTFTRDEYFARLTWPGGSHIIPIDAFLRAMMRDVAWGFFYGVVNFDHVFGTINHYGEVTMFAGRFNDAYRNAGRDHEERFKSSALMAVFKDILSDWTVEGYDPFAAPMETGLPWGIKNGNNDEAISRQRVTARRMVGLPGDTPVRTDANGFPVNRQFADVPQEQPVVEAEPGFEAEVSAYNLFGYLSRSDVTWNPSVCSVVGDSLFCPTSEEFILPVEHGNDRCEWFLQLSDEIVWDVKDKESGKPRARVTARAGDICCMPADIRHQGYSTKRSMLLVWENGSPKIPQMIADGTAPVVPVTF chain 2: MADVVTEFGALTDYRKGGVEIIDDDPRNYVFSNVFEVAANAAPYERVAVGKNFEYVIESARAEGTSGWFSCAHDEFVLAMDGQIEVHLLKLDNSDAYVDPDSEGAVAIGEALPEGRKMGRIVLRRGHMALLPVGAAYRFYAEQPAAMLFQSIEGAVTVQKWGEICQTEAA | – | Km (purified protein): 2.2 ± 0.2 µM; kcat (purified protein): 13.5 s⁻¹

Further lines, with some results ahead:

activity at 200 µM [1] [%] | Molecule | also measured
94 ± 4.6 | O=C(O)c1ccc(O)c(O)c1 [3,4-Dihydroxybenzoate] | –
97 ± 1.9 | O=C(O)/C=C/c1ccc(O)cc1 [4-Coumaric acid] | –
46 ± 0.4 | O=C(O)c1ccc(O)cc1 [4-Hydroxybenzoate] | –
99 ± 0.5 | Oc1cccc(O)c1 [Resorcinol] | –
86 ± 1 | COc1cc(C(=O)O)ccc1O [Vanillate] | –

Source: article PMC3222310, “Purification and characterization of hydroquinone dioxygenase from Sphingomonas sp. strain TTNP3” (AMB Express, 2011)
